Measured values reported in publication PMC7251097, “Aspartate/asparagine-β-hydroxylase: a high-throughput mass spectrometric assay for discovery of small molecule inhibitors” (Scientific Reports, 2020).
Structures can show the parent of a compound that is named as a salt. Where two headings read alike, the source gives them in different places.

Biological target: T1, His6-AspH315–758 (human aspartate/asparagine-β-hydroxylase, AspH) (Homo sapiens, UniProt Q12797)
T1 construct: N-Terminally His6-tagged human AspH315–758 (His6-AspH315–758) was produced in E. coli BL21 (DE3) cells; made in house; host or cells: E. coli BL21 (DE3), pET-28a(+) vector
T1 sequence (Q12797 315-758): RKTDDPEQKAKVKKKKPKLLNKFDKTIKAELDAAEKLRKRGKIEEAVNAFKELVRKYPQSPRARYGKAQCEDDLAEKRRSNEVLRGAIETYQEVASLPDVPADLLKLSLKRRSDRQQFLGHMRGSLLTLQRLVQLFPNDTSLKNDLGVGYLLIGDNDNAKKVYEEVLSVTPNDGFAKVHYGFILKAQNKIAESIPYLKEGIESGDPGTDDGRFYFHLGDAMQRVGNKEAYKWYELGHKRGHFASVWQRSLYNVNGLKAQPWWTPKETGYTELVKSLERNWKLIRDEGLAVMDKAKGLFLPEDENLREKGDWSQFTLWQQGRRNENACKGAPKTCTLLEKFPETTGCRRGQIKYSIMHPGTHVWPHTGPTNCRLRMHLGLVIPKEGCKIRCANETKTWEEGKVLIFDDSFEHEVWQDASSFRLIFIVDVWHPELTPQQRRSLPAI
Test: SPE-MS AspH inhibition assay (LOPAC screen at fixed 20 μM and IC50 dose-response), hydroxylation of cyclic peptide hFX-CP101–119
Type: biochemical

[1] = LOPAC Plate 4, compound at 20 uM, substrate conversion
[2] = LOPAC Plate 4, compound at 20 uM, read-out: % inhibition
[3] = LOPAC compound at 20uM, conversion of substrate peptide
[4] = LOPAC Plate 4, compound at 20 uM
[5] = LOPAC compound at fixed 20 uM, plate 1, normalised to DMSO and 2,4-PDCA controls
[6] = LOPAC compound at fixed 20 uM, substrate conversion, plate 1
[7] = LOPAC compound at 20uM, plate 2, conversion of substrate peptide
[8] = LOPAC compound at 20uM, plate 2, normalised to DMSO and 2,4-PDCA controls
[9] = plate 5 (Pfitzer), test compounds at fixed 20 μM
[10] = plate 5 (Pfitzer), test compounds at fixed 20 μM, mean conversion DMSO 32.88

SMILES: NC(=O)c1ncn([C@@H]2O[C@H](CO)[C@@H](O)[C@H]2O)n1 [Ribavirin]
- % conversion [1]: 38.92%
- inhibition at 20 µM [2]: -7.18%

SMILES: C1COC(NC(C2CC2)C2CC2)=N1 [Rilmenidine hemifumarate]
- % conversion [1]: 24.79%

SMILES: Nc1nc2ccc(OC(F)(F)F)cc2s1 [Riluzole]
- % conversion [1]: 38.21%
- inhibition at 20 µM [2]: -5.09%

SMILES: Cc1nc2sccn2c(=O)c1CCN1CCC(=C(c2ccc(F)cc2)c2ccc(F)cc2)CC1 [Ritanserin]
- % conversion [1]: 37.56%

SMILES: CC(NCCc1ccc(O)cc1)C(O)c1ccc(O)cc1 (stereo not drawn) [Ritodrine hydrochloride]
- % conversion [1]: 37.24%
- inhibition at 20 µM [2]: -2.24%

SMILES: CN(C)CCc1c[nH]c2ccc(Cn3cncn3)cc12.O=C(O)c1ccccc1 [Rizatriptan benzoate salt]
- Plate 3 (% conversion) [3]: 37.82%

SMILES: CNc1cc(NS(=O)(=O)c2ccc(N)cc2)nc(NC)n1.Cl.Cl [Ro 04-6790 dihydrochloride]
- % inhibition [4]: 35.85%
- % conversion [1]: 24.24%

SMILES: O=C(c1cc(O)c(O)c([N+](=O)[O-])c1)c1ccccc1F [Ro 41-0960, reference compound]
- % inhibition [4]: 97.80%
- % conversion [1]: 3.09%

SMILES: COc1ccc(C2CNC(=O)C2)cc1OC1CCCC1 (stereo not drawn) [Rolipram]
- % conversion [1]: 37.72%
- inhibition at 20 µM [2]: -3.65%

SMILES: CCCN(CCC)CCc1cccc2c1CC(=O)N2 [Ropinirole hydrochloride]
- % conversion: 31.94%

SMILES: CC[C@H](CO)Nc1nc(NCc2ccccc2)c2ncn(C(C)C)c2n1 [Roscovitine]
- Plate 1 (% conversion): 40.73%
- Plate 1 (% inhibition): -14.45%

SMILES: C=C(C)[C@H]1Cc2c(ccc3c2O[C@@H]2COc4cc(OC)c(OC)cc4[C@@H]2C3=O)O1 [Rotenone]
- % conversion: 46.53%

SMILES: CC(=O)c1c(O)c(C)c(O)c(Cc2c(O)c3c(c(C(=O)/C=C/c4ccccc4)c2O)OC(C)(C)C=C3)c1O [Rottlerin]
- % conversion: 14.64%
- inhibition at 20 µM: 64%

SMILES: O=c1c2ccccc2nc2n1CCc1c-2[nH]c2ccccc12 [Rutaecarpine]
- % conversion [1]: 29.23%

SMILES: N.N.N.N.N.N.N.N.N.N.N.N.N.N.[Cl-].[Cl-].[Cl-].[Cl-].[Cl-].[Cl-].[O-2].[O-2].[Ru+3].[Ru+3].[Ru+4] [Ruthenium red]
- % inhibition [4]: -14.56%
- % conversion [1]: 41.44%

SMILES: CC(C)Cc1ccc([C@H](C)C(=O)O)cc1 [S(+)-Ibuprofen]
- Plate 3 (% conversion) [3]: 38.99%

SMILES: CC(C)NC[C@H](O)COc1ccc(CC(N)=O)cc1 [S(-)-Atenolol]
- Plate 1 (% inhibition) [5]: -5.71%
- Plate 1 (% conversion) [6]: 37.79%

SMILES: CC(C)(C)NC[C@H](O)COc1nsnc1N1CCOCC1.O=C(O)/C=C\C(=O)O [S(-)-Timolol maleate]
- % conversion [1]: 29.54%

SMILES: Brc1ccc([C@H]2CN3CCSC3=N2)cc1.O=C(O)C(=O)O [S(-)-p-Bromotetramisole oxalate]
- Plate 1 (% inhibition) [5]: 75.43%
- Plate 1 (% conversion) [6]: 10.54%

SMILES: O=[N+]([O-])c1ccc(CSc2ncnc3c2ncn3[C@@H]2O[C@H](CO)[C@@H](O)[C@H]2O)cc1 [S-(4-Nitrobenzyl)-6-thioinosine]
- Plate 3 (% conversion) [3]: 36.51%

SMILES: CNCC[C@H](Oc1ccc(C(F)(F)F)cc1)c1ccccc1.Cl [S-(+)-Fluoxetine hydrochloride]
- Plate 2 (% conversion): 45.11%
- Plate 2 (% inhibition) (20 µM): -27.34%

SMILES: C[C@@](Cc1ccc(O)c(O)c1)(NN)C(=O)O [S-(-)-Carbidopa]
- Plate 2 (% conversion) [7]: 7.52%
- Plate 2 (% inhibition) [8]: 84.92%

SMILES: [N-]=[N+]=Nc1ccc(C(=O)CSC[C@H](NC(=O)CC[C@H](N)C(=O)O)C(=O)NCC(=O)O)cc1 [S-(p-Azidophenacyl)glutathione]
- Plate 1 (% inhibition) [5]: -2.24%
- Plate 1 (% conversion) [6]: 36.62%

SMILES: CSC(=N)N.CSC(=N)N.O=S(=O)(O)O [S-Methylisothiourea hemisulfate]
- Plate 3 (% conversion) [3]: 35.95%

SMILES: N[C@@H](CCC(=O)N[C@@H](CSN=O)C(=O)NCC(=O)O)C(=O)O [S-Nitrosoglutathione]
- Plate 3 (% conversion) [3]: 32.88%

SMILES: Cc1nn(-c2ccccc2)c(C)c1/C=N/N1CCN(Cc2ccccc2)CC1 [SANT-1]
- Plate 2 (% conversion) [7]: 42.39%
- Plate 2 (% inhibition) [8]: -19.21%

SMILES: Cl.Cn1ccc2cc(NC(=O)Nc3cccnc3)ccc21 [SB 200646 hydrochloride]
- Plate 1 (% inhibition) [5]: -6.42%
- Plate 1 (% conversion) [6]: 38.03%

SMILES: Oc1ccc(-c2nc(-c3ccncc3)c(-c3ccc(F)cc3)[nH]2)cc1 [SB 202190]
- Plate 1 (% inhibition) [5]: -5.28%
- Plate 1 (% conversion) [6]: 37.64%

SMILES: Cc1cc(NC(=O)Nc2ccc3c(ccn3C)c2)sn1 [SB 204741]
- Plate 1 (% conversion): 37.70%
- Plate 1 (% inhibition): -5.45%

SMILES: CC#CCOC(=O)c1c(C)nc2sc3c(c2c1N)CCC(O)C3 (stereo not drawn) [SB 205384]
- % conversion: 39.48%

SMILES: Cn1ccc2cc3c(cc21)CCN3C(=O)Nc1cccnc1 [SB 206553 hydrochloride]
- % conversion: 28.82%

SMILES: CC[C@H](NC(=O)c1c(C)c(-c2ccccc2)nc2ccccc12)c1ccccc1 [SB 222200]
- Plate 1 (% inhibition) [5]: -26.34%
- Plate 1 (% conversion) [6]: 44.72%

SMILES: Cc1cc2c(cc1Cl)N(C(=O)Nc1ccc(Oc3cccnc3C)nc1)CC2.Cl.Cl.O [SB 242084 dihydrochloride hydrate]
- Plate 3 (% conversion) [3]: 37.92%

SMILES: CC1CCN(CC[C@H]2CCCN2S(=O)(=O)c2cccc(O)c2)CC1.Cl [SB 269970 hydrochloride]
- % inhibition [4]: -11.63%
- % conversion [1]: 40.44%

SMILES: Cc1cc2c(cc1Cl)N(C(=O)Nc1cccc3ncccc13)CC2 [SB-215505]
- Plate 3 (% conversion) [3]: 42.68%

SMILES: COc1cccc(NC(=O)/C=C/c2ccc(Cl)cc2)c1 [SB-366791]
- % inhibition [4]: 0.24%
- % conversion [1]: 36.39%

SMILES: CC(=O)NNC(=O)N1Cc2ccccc2Oc2ccc(Cl)cc21 [SC 19220]
- % conversion [1]: 29.06%

SMILES: NS(=O)(=O)c1ccc(-n2nc(C(F)(F)F)cc2-c2ccc(Cl)cc2)cc1 [SC-236]
- Plate 3 (% conversion) [3]: 40.00%
- Plate 5 (% inhibition) [9]: -23.50%
- Plate 5 (% conversion) [10]: 44.31%

SMILES: N#CC(CCCN1CCN(/N=C/c2cccnc2)CC1)(c1ccccc1)c1ccccc1 [SC-26196]
- Plate 5 (% inhibition) [9]: 23.44%
- Plate 5 (% conversion) [10]: 28.34%

SMILES: O=C(CCSCc1ccco1)NNC(=O)N1Cc2ccccc2Oc2ccc(Cl)cc21 [SC-51322]
- % conversion [1]: 23.51%
- Plate 5 (% inhibition) [9]: 13.59%
- Plate 5 (% conversion) [10]: 31.69%

SMILES: COc1cc(N)c(Cl)cc1C(=O)NC[C@@H]1CCN2CCC[C@@H]12 [SC-53116]
- Plate 5 (% inhibition) [9]: 9.86%
- Plate 5 (% conversion) [10]: 32.96%

SMILES: CN(CCCOc1ccc(Cc2ccccc2)cc1)CCC(=O)O.Cl [SC-57461A]
- % conversion: 41.07%
- Plate 5 (% conversion): 38.96%
- Plate 5 (% inhibition): -7.77%
- % inhibition (20 µM): -13.47%

SMILES: CS(=O)(=O)c1ccc(-n2nc(C(F)(F)F)cc2-c2ccc(F)cc2)cc1 [SC-58125]
- Plate 3 (% conversion) [3]: 37.41%
- Plate 5 (% inhibition) [9]: 0.65%
- Plate 5 (% conversion) [10]: 36.09%

SMILES: Nc1nc2c(cnn2CCc2ccccc2)c2nc(-c3ccco3)nn12 [SCH 58261]
- % conversion [1]: 31.57%

SMILES: Cc1nc2c(OCc3ccccc3)cccn2c1CC#N [SCH-28080]
- Plate 2 (% conversion) [7]: 38.71%
- Plate 2 (% inhibition) [8]: -8.22%
